Data published in ChEMBL document CHEMBL5303573, “Mapping human microbiome drug metabolism by gut bacteria and their genes” (Nature, 2019).

Assays:
[1] = The drug is tested on Enterobacter cancerogenus strain: ATCC35316 for biotransformation. The drug concentrations were measured before and after a 12-h incubation by liquid-chromatography-coupled mass spectrometry (LC–MS); settings: 2 µM
[2] = The drug is tested on Bacteroides pectinophilus strain: ATCC43243 for biotransformation. The drug concentrations were measured before and after a 12-h incubation by liquid-chromatography-coupled mass spectrometry (LC–MS); settings: 2 µM
[3] = limosilactobacillus reuteri cf48-3a, 12 h, 2 µM
Description: The drug is tested on Lactobacillus reuteri CF48-3A strain: BEI HM-102 for biotransformation. The drug concentrations were measured before and after a 12-h incubation by liquid-chromatography-coupled mass spectrometry (LC–MS)

[4] = The drug is tested on Anaerotruncus colihominis strain: DSM17241 for biotransformation. The drug concentrations were measured before and after a 12-h incubation by liquid-chromatography-coupled mass spectrometry (LC–MS); settings: 2 µM
[5] = parabacteroides distasonis, 12 h, 2 µM
Description: The drug is tested on Parabacteroides distasonis strain: ATCC8503 for biotransformation. The drug concentrations were measured before and after a 12-h incubation by liquid-chromatography-coupled mass spectrometry (LC–MS)

[6] = The drug is tested on Collinsella intestinalis strain: DSM13280 for biotransformation. The drug concentrations were measured before and after a 12-h incubation by liquid-chromatography-coupled mass spectrometry (LC–MS); settings: 2 µM
[7] = The drug is tested on Parabacteroides merdae strain: ATCC43184 for biotransformation. The drug concentrations were measured before and after a 12-h incubation by liquid-chromatography-coupled mass spectrometry (LC–MS); settings: 2 µM
[8] = The drug is tested on Alistipes indistinctus strain: DSM22520 for biotransformation. The drug concentrations were measured before and after a 12-h incubation by liquid-chromatography-coupled mass spectrometry (LC–MS); settings: 2 µM
[9] = bacteroides thetaiotaomicron, 12 h, 2 µM
Description: The drug is tested on Bacteroides thetaiotaomicron strain: 3731 for biotransformation. The drug concentrations were measured before and after a 12-h incubation by liquid-chromatography-coupled mass spectrometry (LC–MS)

[10] = The drug is tested on Collinsella aerofaciens strain: ATCC25986 for biotransformation. The drug concentrations were measured before and after a 12-h incubation by liquid-chromatography-coupled mass spectrometry (LC–MS); settings: 2 µM
[11] = The drug is tested on Edwardsiella tarda strain: ATCC23685 for biotransformation. The drug concentrations were measured before and after a 12-h incubation by liquid-chromatography-coupled mass spectrometry (LC–MS); settings: 2 µM
[12] = The drug is tested on Providencia stuartii strain: ATCC25827 for biotransformation. The drug concentrations were measured before and after a 12-h incubation by liquid-chromatography-coupled mass spectrometry (LC–MS); settings: 2 µM
[13] = The drug is tested on Escherichia coli strain: BW25113 for biotransformation. The drug concentrations were measured before and after a 12-h incubation by liquid-chromatography-coupled mass spectrometry (LC–MS); settings: 2 µM
[14] = parabacteroides johnsonii, 12 h, 2 µM
Description: The drug is tested on Parabacteroides johnsonii strain: DSM18315 for biotransformation. The drug concentrations were measured before and after a 12-h incubation by liquid-chromatography-coupled mass spectrometry (LC–MS)

[15] = The drug is tested on Bifidobacterium longum subsp. Infantis strain: CCUG52486 for biotransformation. The drug concentrations were measured before and after a 12-h incubation by liquid-chromatography-coupled mass spectrometry (LC–MS); settings: 2 µM
[16] = The drug is tested on Clostridium ramosum strain: DSM1402 for biotransformation. The drug concentrations were measured before and after a 12-h incubation by liquid-chromatography-coupled mass spectrometry (LC–MS); settings: thomasclavelia ramosa, 2 µM
[17] = enterocloster bolteae, 12 h, 2 µM
Description: The drug is tested on Clostridium bolteae strain: ATCCBAA-613 for biotransformation. The drug concentrations were measured before and after a 12-h incubation by liquid-chromatography-coupled mass spectrometry (LC–MS)

[18] = The drug is tested on Clostridium asparagiforme strain: DSM15981 for biotransformation. The drug concentrations were measured before and after a 12-h incubation by liquid-chromatography-coupled mass spectrometry (LC–MS); format: ADME; set-up: dose 2 uM, timepoint 0 vs 12 hours; settings: enterocloster asparagiformis, 2 µM
[19] = The drug is tested on Anaerococcus hydrogenalis strain: DSM7454 for biotransformation. The drug concentrations were measured before and after a 12-h incubation by liquid-chromatography-coupled mass spectrometry (LC–MS); settings: 2 µM
[20] = segatella copri, 12 h, 2 µM
Description: The drug is tested on Prevotella copri strain: DSM18205 for biotransformation. The drug concentrations were measured before and after a 12-h incubation by liquid-chromatography-coupled mass spectrometry (LC–MS)

[21] = The drug is tested on Ruminococcus gnavus strain: ATCC29149 for biotransformation. The drug concentrations were measured before and after a 12-h incubation by liquid-chromatography-coupled mass spectrometry (LC–MS); settings: mediterraneibacter gnavus, 2 µM
[22] = akkermansia muciniphila, 12 h, 2 µM
Description: The drug is tested on Akkermansia muciniphila strain: ATCC BAA-835 for biotransformation. The drug concentrations were measured before and after a 12-h incubation by liquid-chromatography-coupled mass spectrometry (LC–MS)

[23] = The drug is tested on Ruminococcus torques strain: ATCC27756 for biotransformation. The drug concentrations were measured before and after a 12-h incubation by liquid-chromatography-coupled mass spectrometry (LC–MS); format: ADME; set-up: dose 2 uM, timepoint 0 vs 12 hours; settings: 2 µM
[24] = The drug is tested on Bacteroides dorei strain: DSM17855 for biotransformation. The drug concentrations were measured before and after a 12-h incubation by liquid-chromatography-coupled mass spectrometry (LC–MS); settings: phocaeicola dorei, 2 µM
[25] = bacteroides stercoris, 12 h, 2 µM
Description: The drug is tested on Bacteroides stercoris strain: ATCC43183 for biotransformation. The drug concentrations were measured before and after a 12-h incubation by liquid-chromatography-coupled mass spectrometry (LC–MS)

[26] = The drug is tested on Enterococcus faecalis strain: V583 for biotransformation. The drug concentrations were measured before and after a 12-h incubation by liquid-chromatography-coupled mass spectrometry (LC–MS); settings: 2 µM
[27] = The drug is tested on Blautia luti strain: DSM14534 for biotransformation. The drug concentrations were measured before and after a 12-h incubation by liquid-chromatography-coupled mass spectrometry (LC–MS); format: ADME; set-up: dose 2 uM, timepoint 0 vs 12 hours; settings: 2 µM
[28] = The drug is tested on Eubacterium ventriosum strain: ATCC27560 for biotransformation. The drug concentrations were measured before and after a 12-h incubation by liquid-chromatography-coupled mass spectrometry (LC–MS); format: ADME; set-up: dose 2 uM, timepoint 0 vs 12 hours; settings: 2 µM
[29] = The drug is tested on Bacteroides fragilis strain: ATCC43859 for biotransformation. The drug concentrations were measured before and after a 12-h incubation by liquid-chromatography-coupled mass spectrometry (LC–MS); settings: 2 µM
[30] = anaerostipes sp., 12 h, 2 µM
Description: The drug is tested on Anaerostipes sp. strain: fecal isolate for biotransformation. The drug concentrations were measured before and after a 12-h incubation by liquid-chromatography-coupled mass spectrometry (LC–MS)

[31] = The drug is tested on Bacteroides caccae strain: ATCC43185 for biotransformation. The drug concentrations were measured before and after a 12-h incubation by liquid-chromatography-coupled mass spectrometry (LC–MS); settings: 2 µM
[32] = The drug is tested on Bacteroides fragilis strain: HMW610 for biotransformation. The drug concentrations were measured before and after a 12-h incubation by liquid-chromatography-coupled mass spectrometry (LC–MS); settings: 2 µM
[33] = bifidobacterium adolescentis, 12 h, 2 µM
Description: The drug is tested on Bifidobacterium adolescentis strain: ATCC 15703 for biotransformation. The drug concentrations were measured before and after a 12-h incubation by liquid-chromatography-coupled mass spectrometry (LC–MS)

[34] = The drug is tested on Coprococcus comes strain: ATCC27758 for biotransformation. The drug concentrations were measured before and after a 12-h incubation by liquid-chromatography-coupled mass spectrometry (LC–MS); format: ADME; set-up: dose 2 uM, timepoint 0 vs 12 hours; settings: 2 µM
[35] = The drug is tested on Dorea formicigenerans strain: ATCC27755 for biotransformation. The drug concentrations were measured before and after a 12-h incubation by liquid-chromatography-coupled mass spectrometry (LC–MS); settings: 2 µM
[36] = The drug is tested on Clostridium symbiosum strain: ATCC14940 for biotransformation. The drug concentrations were measured before and after a 12-h incubation by liquid-chromatography-coupled mass spectrometry (LC–MS); settings: 2 µM
[37] = The drug is tested on Bacteroides xylanisolvens strain: DSM18836 for biotransformation. The drug concentrations were measured before and after a 12-h incubation by liquid-chromatography-coupled mass spectrometry (LC–MS); settings: 2 µM
[38] = The drug is tested on Bifidobacterium breve strain: DSM20213 for biotransformation. The drug concentrations were measured before and after a 12-h incubation by liquid-chromatography-coupled mass spectrometry (LC–MS); settings: 2 µM
[39] = The drug is tested on Bacteroides vulgatus strain: ATCC8482 for biotransformation. The drug concentrations were measured before and after a 12-h incubation by liquid-chromatography-coupled mass spectrometry (LC–MS); settings: phocaeicola vulgatus, 2 µM
[40] = The drug is tested on Clostridium scindens strain: ATCC35704 for biotransformation. The drug concentrations were measured before and after a 12-h incubation by liquid-chromatography-coupled mass spectrometry (LC–MS); settings: 2 µM
[41] = The drug is tested on Clostridium sporogenes strain: ATCC15579 for biotransformation. The drug concentrations were measured before and after a 12-h incubation by liquid-chromatography-coupled mass spectrometry (LC–MS); settings: 2 µM
[42] = The drug is tested on Ruminococcus lactaris strain: ATCC29176 for biotransformation. The drug concentrations were measured before and after a 12-h incubation by liquid-chromatography-coupled mass spectrometry (LC–MS); settings: 2 µM
[43] = The drug is tested on Bacteroides ovatus strain: ATCC8483 for biotransformation. The drug concentrations were measured before and after a 12-h incubation by liquid-chromatography-coupled mass spectrometry (LC–MS); settings: 2 µM
[44] = The drug is tested on Bacteroides finegoldii strain: DSM17565 for biotransformation. The drug concentrations were measured before and after a 12-h incubation by liquid-chromatography-coupled mass spectrometry (LC–MS); settings: 2 µM
[45] = The drug is tested on Eubacterium hallii strain: DSM3353 for biotransformation. The drug concentrations were measured before and after a 12-h incubation by liquid-chromatography-coupled mass spectrometry (LC–MS); settings: anaerobutyricum hallii, 2 µM
[46] = bacteroides intestinalis, 12 h, 2 µM
Description: The drug is tested on Bacteroides intestinalis strain: DSM17393 for biotransformation. The drug concentrations were measured before and after a 12-h incubation by liquid-chromatography-coupled mass spectrometry (LC–MS)

[47] = The drug is tested on Odoribacter splanchnicus strain: fecal isolate for biotransformation. The drug concentrations were measured before and after a 12-h incubation by liquid-chromatography-coupled mass spectrometry (LC–MS); settings: 2 µM
[48] = The drug is tested on Bifidobacterium ruminantium strain: fecal isolate for biotransformation. The drug concentrations were measured before and after a 12-h incubation by liquid-chromatography-coupled mass spectrometry (LC–MS); settings: 2 µM
[49] = The drug is tested on Subdoligranulum variabile strain: DSM15176 for biotransformation. The drug concentrations were measured before and after a 12-h incubation by liquid-chromatography-coupled mass spectrometry (LC–MS); settings: 2 µM
[50] = The drug is tested on Bacteroides sp. WH2 strain: WH2 for biotransformation. The drug concentrations were measured before and after a 12-h incubation by liquid-chromatography-coupled mass spectrometry (LC–MS); settings: bacteroides sp. wh2, 12 h, 2 µM
[51] = The drug is tested on Eubacterium rectale strain: ATCC33656 for biotransformation. The drug concentrations were measured before and after a 12-h incubation by liquid-chromatography-coupled mass spectrometry (LC–MS); settings: agathobacter rectalis, 2 µM
[52] = The drug is tested on Providencia rettgeri strain: DSM1131 for biotransformation. The drug concentrations were measured before and after a 12-h incubation by liquid-chromatography-coupled mass spectrometry (LC–MS); format: ADME; set-up: dose 2 uM, timepoint 0 vs 12 hours; settings: 2 µM

SMILES | Bacterial Biotransformation [1] | Bacterial Biotransformation [3] | Bacterial Biotransformation [4] | Bacterial Biotransformation [6] | Bacterial Biotransformation [9] | Bacterial Biotransformation [12] | Bacterial Biotransformation [13] | Bacterial Biotransformation [14] | Bacterial Biotransformation [15] | Bacterial Biotransformation [17] | Bacterial Biotransformation [19] | Bacterial Biotransformation [21] | Bacterial Biotransformation [22] | Bacterial Biotransformation [23] | Bacterial Biotransformation [28] | Bacterial Biotransformation [30] | Bacterial Biotransformation [31] | Bacterial Biotransformation [34] | Bacterial Biotransformation [35] | Bacterial Biotransformation [36] | also measured
Nc1nc(NC2CC2)c2ncn([C@H]3C=C[C@@H](CO)C3)c2n1.Nc1nc(NC2CC2)c2ncn([C@H]3C=C[C@@H](CO)C3)c2n1.O=S(=O)(O)O [ABACAVIR SULFATE] | Compound NOT metabolized | Compound NOT metabolized | Compound NOT metabolized | Compound NOT metabolized | Compound NOT metabolized | Compound NOT metabolized | Compound NOT metabolized | Compound NOT metabolized | Compound NOT metabolized | Compound NOT metabolized | Compound NOT metabolized | Compound NOT metabolized | Compound NOT metabolized | Compound NOT metabolized | Compound NOT metabolized | Compound NOT metabolized | Compound NOT metabolized | Compound NOT metabolized | Compound NOT metabolized | Compound NOT metabolized | Bacterial Biotransformation [2]: Compound NOT metabolized; Bacterial Biotransformation [5]: Compound NOT metabolized; Bacterial Biotransformation [7]: Compound NOT metabolized; Bacterial Biotransformation [8]: Compound NOT metabolized; Bacterial Biotransformation [10]: Compound NOT metabolized; Bacterial Biotransformation [11]: Compound NOT metabolized; Bacterial Biotransformation [16]: Compound NOT metabolized; Bacterial Biotransformation [18]: Compound NOT metabolized; Bacterial Biotransformation [20]: Compound NOT metabolized; Bacterial Biotransformation [24]: Compound NOT metabolized; Bacterial Biotransformation [25]: Compound NOT metabolized; Bacterial Biotransformation [26]: Compound NOT metabolized; Bacterial Biotransformation [27]: Compound NOT metabolized; Bacterial Biotransformation [29]: Compound NOT metabolized; Bacterial Biotransformation [32]: Compound NOT metabolized; Bacterial Biotransformation [33]: Compound NOT metabolized; Bacterial Biotransformation [37]: Compound NOT metabolized; Bacterial Biotransformation [38]: Compound NOT metabolized; Bacterial Biotransformation [39]: Compound NOT metabolized; Bacterial Biotransformation [40]: Compound NOT metabolized
CCCCCOC(=O)Nc1nc(=O)n([C@@H]2O[C@H](C)[C@@H](O)[C@H]2O)cc1F [CAPECITABINE] | Compound metabolized | Compound metabolized | Compound NOT metabolized | Compound NOT metabolized | Compound NOT metabolized | Compound NOT metabolized | Compound metabolized | Compound NOT metabolized | Compound metabolized | Compound NOT metabolized | Compound NOT metabolized | Compound NOT metabolized | Compound NOT metabolized | Compound NOT metabolized | Compound NOT metabolized | Compound NOT metabolized | Compound NOT metabolized | Compound NOT metabolized | Compound NOT metabolized | Compound NOT metabolized | Bacterial Biotransformation [41]: Compound NOT metabolized; Bacterial Biotransformation [42]: Compound NOT metabolized; Bacterial Biotransformation [43]: Compound NOT metabolized; Bacterial Biotransformation [44]: Compound NOT metabolized; Bacterial Biotransformation [45]: Compound NOT metabolized; Bacterial Biotransformation [46]: Compound NOT metabolized; Bacterial Biotransformation [47]: Compound metabolized; Bacterial Biotransformation [48]: Compound NOT metabolized; Bacterial Biotransformation [49]: Compound NOT metabolized; Bacterial Biotransformation [50]: Compound NOT metabolized; Bacterial Biotransformation [51]: Compound metabolized; Bacterial Biotransformation [52]: Compound NOT metabolized
